Patent publication US9708314B2, “Heterocyclic amide compound” (NISSAN CHEMICAL INDUSTRIES, LTD., priority 2013, dated 2017)

Legend:
Assay type in all cases: in vivo
[1] = test system: Galium spurium; assay: Test Example 4: herbicidal effect by application to foliage (diluvial soil, plastic box); details: application to foliage; for herbicidal effect, Q (Galium spurium): 320 g/ha
Method in brief: (§1)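 Read-out is a 0–5 visual grade of herbicidal ratio (5: ≥90%, almost withered; 0: ≤5%) taken three weeks after treatment. Compound was applied as a diluted emulsion to stem and leaf parts of 14-day greenhouse-grown plants (25° C. to 30° C.) at rates expressed as g/ha.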

[2] = test system: Abutilon theophrasti; assay: as above; details: application to foliage; for herbicidal effect, M (Abutilon theophrasti): 320 g/ha
Method in brief: as §1

[3] = test system: Avena fatua; assay: as above; details: application to foliage; for herbicidal effect, I (Avena fatua): 320 g/ha
Method in brief: as §1

[4] = test system: Stellaria media; assay: as above; details: application to foliage; for herbicidal effect, P (Stellaria media): 320 g/ha
Method in brief: as §1

[5] = test system: Setaria viridis; assay: as above; details: application to foliage; for herbicidal effect, G (Setaria viridis): 320 g/ha
Method in brief: as §1

[6] = test system: Alopecurus myosuroides; assay: as above; details: application to foliage; for herbicidal effect, J (Alopecurus myosuroides): 320 g/ha
Method in brief: as §1

[7] = test system: Amaranthus retroflexus; assay: as above; details: application to foliage; for herbicidal effect, N (Amaranthus retroflexus): 320 g/ha
Method in brief: as §1

[8] = test system: Digitaria ciliaris; assay: as above; details: application to foliage; for herbicidal effect, F (Digitaria ciliaris): 320 g/ha
Method in brief: as §1

[9] = test system: Chenopodium album; assay: as above; details: application to foliage; for herbicidal effect, O (Chenopodium album): 320 g/ha
Method in brief: as §1

[10] = test system: Apera spica-venti.; assay: as above; details: application to foliage; for herbicidal effect, L (Apera spica-venti.): 320 g/ha
Method in brief: as §1

[11] = test system: Veronica persica; assay: as above; details: application to foliage; for herbicidal effect, R (Veronica persica): 320 g/ha
Method in brief: as §1

[12] = test system: Lolium multiflorum Lam.; assay: as above; details: application to foliage; for herbicidal effect, K (Lolium multiflorum Lam.): 320 g/ha
Method in brief: as §1

[13] = test system: Echinochloa crus-galli var. crus-galli; assay: as above; details: application to foliage; for herbicidal effect, H (Echinochloa crus-galli var. crus-galli): 320 g/ha
Method in brief: as §1

[14] = test system: Cyperus difformis; assay: Test Example 3: herbicidal effect by application to foliage (Wagner pot, water depth 0.1-0.5 cm); details: Nineteenth Table; application to foliage; application herbicide amount 320 g/ha
Method in brief: (§2)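 Post-emergence foliar application at a stated g/ha rate to plants grown 14 days from seed in alluvial soil, greenhouse 25–30 °C. Visual score after 3 weeks: 0 (≤5% effect) through 5 (≥90%).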

[15] = test system: Leptochloa chinensis; assay: as above; details: Nineteenth Table; application to foliage; application herbicide amount 320 g/ha
Method in brief: as §2

[16] = test system: Echinochloa crus-galli var. crus-galli; assay: as above; details: Nineteenth Table; application to foliage; application herbicide amount 320 g/ha
Method in brief: as §2

[17] = application herbicide amount 320 g/ha

| SMILES | E (herbicidal effect grade) [14] | D (herbicidal effect grade) [15] | H (herbicidal effect grade) [16] | herbicidal effect, Q (Galium spurium) [1] | herbicidal effect, M (Abutilon theophrasti) [2] | herbicidal effect, I (Avena fatua) [3] | herbicidal effect, P (Stellaria media) [4] | herbicidal effect, G (Setaria viridis) [5] | herbicidal effect, J (Alopecurus myosuroides) [6] | herbicidal effect, N (Amaranthus retroflexus) [7] | herbicidal effect, F (Digitaria ciliaris) [8] | herbicidal effect, O (Chenopodium album) [9] | herbicidal effect, L (Apera spica-venti.) [10] | herbicidal effect, R (Veronica persica) [11] | herbicidal effect, K (Lolium multiflorum Lam.) [12] | herbicidal effect, H (Echinochloa crus-galli var. crus-galli) [13] | also measured |
| --- | --- | --- | --- | --- | --- | --- | --- | --- | --- | --- | --- | --- | --- | --- | --- | --- | --- |
| Cc1nnc(NC(=O)c2ccc(C(F)(F)F)n3c(SCc4ccc(Cl)nc4)nnc23)o1 [1-156] | 2 (Herbicidal ratio of 20% or more and less than 40%) | 2 (Herbicidal ratio of 20% or more and less than 40%) | 3 (Herbicidal ratio of 40% or more and less than 70%) |  |  |  |  |  |  |  |  |  |  |  |  |  | Q: herbicidal effect on Galium spurium [1, 17]: 1 (Herbicidal ratio of 5% or more and less than 20%); M: herbicidal effect on Abutilon theophrasti [2, 17]: 3 (Herbicidal ratio of 40% or more and less than 70%); I: herbicidal effect on Avena fatua [3, 17]: 1 (Herbicidal ratio of 5% or more and less than 20%); P: herbicidal effect on Stellaria media [4, 17]: 4 (Herbicidal ratio of 70% or more and less than 90%); G: herbicidal effect on Setaria viridis [5, 17]: 1 (Herbicidal ratio of 5% or more and less than 20%); J: herbicidal effect on Alopecurus myosuroides [6, 17]: 1 (Herbicidal ratio of 5% or more and less than 20%); N: herbicidal effect on Amaranthus retroflexus [7, 17]: 3 (Herbicidal ratio of 40% or more and less than 70%); F: herbicidal effect on Digitaria ciliaris [8, 17]: 2 (Herbicidal ratio of 20% or more and less than 40%); O: herbicidal effect on Chenopodium album [9, 17]: 5 (Herbicidal ratio of 90% or more (almost completely withered)); L: herbicidal effect on Apera spica-venti. [10, 17]: 2 (Herbicidal ratio of 20% or more and less than 40%); R: herbicidal effect on Veronica persica [11, 17]: 3 (Herbicidal ratio of 40% or more and less than 70%); K: herbicidal effect on Lolium multiflorum Lam. [12, 17]: 1 (Herbicidal ratio of 5% or more and less than 20%); H: herbicidal effect on Echinochloa crus-galli var. crus-galli [13, 17]: 4 (Herbicidal ratio of 70% or more and less than 90%) |
| C=CCn1nnnc1NC(=O)c1ccc(C(F)(F)F)n2c(C(C)C)nnc12 [2-091] | 4 (Herbicidal ratio of 70% or more and less than 90%) | 3 (Herbicidal ratio of 40% or more and less than 70%) | 5 (Herbicidal ratio of 90% or more (almost completely withered)) | 4 (Herbicidal ratio of 70% or more and less than 90%) | 4 (Herbicidal ratio of 70% or more and less than 90%) | 3 (Herbicidal ratio of 40% or more and less than 70%) | 5 (Herbicidal ratio of 90% or more (almost completely withered)) | 5 (Herbicidal ratio of 90% or more (almost completely withered)) | 2 (Herbicidal ratio of 20% or more and less than 40%) | 4 (Herbicidal ratio of 70% or more and less than 90%) | 5 (Herbicidal ratio of 90% or more (almost completely withered)) | 5 (Herbicidal ratio of 90% or more (almost completely withered)) | 3 (Herbicidal ratio of 40% or more and less than 70%) | 4 (Herbicidal ratio of 70% or more and less than 90%) | 3 (Herbicidal ratio of 40% or more and less than 70%) | 5 (Herbicidal ratio of 90% or more (almost completely withered)) |  |
| CC(C)c1nnc2c(C(=O)Nc3nnnn3Cc3ccc(Cl)cc3)ccc(C(F)(F)F)n12 [2-093] | 5 (Herbicidal ratio of 90% or more (almost completely withered)) | 2 (Herbicidal ratio of 20% or more and less than 40%) | 1 (Herbicidal ratio of 5% or more and less than 20%) | 2 (Herbicidal ratio of 20% or more and less than 40%) | 3 (Herbicidal ratio of 40% or more and less than 70%) | 1 (Herbicidal ratio of 5% or more and less than 20%) | 5 (Herbicidal ratio of 90% or more (almost completely withered)) | 0 (Herbicidal ratio of 5% or less (almost no effect)) | 1 (Herbicidal ratio of 5% or more and less than 20%) | 2 (Herbicidal ratio of 20% or more and less than 40%) | 1 (Herbicidal ratio of 5% or more and less than 20%) | 5 (Herbicidal ratio of 90% or more (almost completely withered)) | 1 (Herbicidal ratio of 5% or more and less than 20%) | 2 (Herbicidal ratio of 20% or more and less than 40%) | 1 (Herbicidal ratio of 5% or more and less than 20%) | 1 (Herbicidal ratio of 5% or more and less than 20%) |  |
| C#CCN(C)c1nnc2c(C(=O)Nc3nnnn3C)ccc(C(F)(F)F)n12 [2-094] | 5 (Herbicidal ratio of 90% or more (almost completely withered)) | 5 (Herbicidal ratio of 90% or more (almost completely withered)) | 5 (Herbicidal ratio of 90% or more (almost completely withered)) | 3 (Herbicidal ratio of 40% or more and less than 70%) | 5 (Herbicidal ratio of 90% or more (almost completely withered)) | 2 (Herbicidal ratio of 20% or more and less than 40%) | 5 (Herbicidal ratio of 90% or more (almost completely withered)) | 4 (Herbicidal ratio of 70% or more and less than 90%) | 1 (Herbicidal ratio of 5% or more and less than 20%) | 4 (Herbicidal ratio of 70% or more and less than 90%) | 4 (Herbicidal ratio of 70% or more and less than 90%) | 5 (Herbicidal ratio of 90% or more (almost completely withered)) | 3 (Herbicidal ratio of 40% or more and less than 70%) | 4 (Herbicidal ratio of 70% or more and less than 90%) | 1 (Herbicidal ratio of 5% or more and less than 20%) | 5 (Herbicidal ratio of 90% or more (almost completely withered)) |  |
| CN(CCC#N)c1nnc2c(C(=O)Nc3nnnn3C)ccc(C(F)(F)F)n12 [2-095] | 5 (Herbicidal ratio of 90% or more (almost completely withered)) | 5 (Herbicidal ratio of 90% or more (almost completely withered)) | 5 (Herbicidal ratio of 90% or more (almost completely withered)) | 4 (Herbicidal ratio of 70% or more and less than 90%) | 5 (Herbicidal ratio of 90% or more (almost completely withered)) | 4 (Herbicidal ratio of 70% or more and less than 90%) | 5 (Herbicidal ratio of 90% or more (almost completely withered)) | 5 (Herbicidal ratio of 90% or more (almost completely withered)) | 4 (Herbicidal ratio of 70% or more and less than 90%) | 5 (Herbicidal ratio of 90% or more (almost completely withered)) | 5 (Herbicidal ratio of 90% or more (almost completely withered)) | 5 (Herbicidal ratio of 90% or more (almost completely withered)) | 5 (Herbicidal ratio of 90% or more (almost completely withered)) | 4 (Herbicidal ratio of 70% or more and less than 90%) | 3 (Herbicidal ratio of 40% or more and less than 70%) | 5 (Herbicidal ratio of 90% or more (almost completely withered)) |  |
